Experimental data: patent US20110224213A1, “Use of Glutaric Acid Derivatives or the Pharmaceutically Acceptable Salts Thereof as Anti-Arrhythmic Agents” (priority 2008, published 2011)
Structures can show the parent of a compound that is named as a salt. Where two headings read alike, the source gives them in different places. Marks after values point to notes of the source that are not given here.

What was measured:
[1] = test system: adrenal arrhythmia in mice; assay type: in vivo
[2] = test system: aconitic arrhythmia in mice; assay: animal or person; assay type: in vivo
Procedure: Arrhythmia was reproduced according to the method of Ju. I. Vikhlyayev and N. V. Kaverina (1958) [Kaverina N. V., Berdyaev S. Ju., Kuschuk E. P., Paskhina O. E. Methodical indications in respect to a study of the anti-arrhythmic activity of new pharmacological substances. Manual on experimental (pre-clinical) study of new pharmacological substances. Edited by V. P. Fisenko.—Moscow. 2000. Page 210]. Aconitine nitrate was administered to the animals in a dose of 50 μg/kg intravenously.
(§1) This model makes it possible to assess the scope of the therapeutic action of the presented compounds and the N-succinyl-D,L-tryptophane dipotassium salt. Assessment of the scope of the therapeutic action was carried out in accordance with the value of the anti-arrhythmic index (AAI), determined as the ratio LD50 upon the oral method of administering to ED50 on an aconitic model of arrhythmia.

[3] = test system: occlusive arrhythmia in cats; assay: Early occlusive arrhythmia in cats (coronary artery ligation); settings: for effect on experimental lethality: 23% lethality in the control; for anti-arrhythmic effect: dose of 0.05 mg/kg, intravenous
[4] = LD50 upon oral administration in mice; settings: mouse, in vivo, per/os
Procedure: as §1

[5] = mice, dose 0.05 mg/kg, introduced internally
[6] = mice, dose 0.5 mg/kg, introduced internally
[7] = mice, 0.05 and 0.5 mg/kg, introduced internally

Structure (SMILES) | Animals lethal (%) [1, 5] | Animals with AV blockage (%) [1, 5] | Animals with ventricular arrhythmia (%) [1, 5] | Lifetime [1, 5] | Number of animals in groups lethal [1, 5] | Number of animals in groups with AV blockage [1, 5] | Number of animals in groups with ventricular arrhythmia [1, 5] | Animals lethal (%) [1, 6] | Animals with AV blockage (%) [1, 6] | Animals with ventricular arrhythmia (%) [1, 6] | Lifetime [1, 6] | Number of animals in groups lethal [1, 6] | Number of animals in groups with AV blockage [1, 6] | Number of animals in groups with ventricular arrhythmia [1, 6] | Animals died in group ([3]; dose 0.05 mg/kg, intravenously) | Animals with ventricular arrhythmia (%) ([3]; dose 0.05 mg/kg, intravenously) | Number of animals with ventricular arrhythmia ([3]; dose 0.05 mg/kg, intravenously) | Time of occurrence of arrhythmia ([3]; dose 0.05 mg/kg, intravenously) | Animals died in group ([3]; dose 0.5 mg/kg, intravenously) | Animals with ventricular arrhythmia (%) ([3]; dose 0.5 mg/kg, intravenously) | further results
O=C([O-])CCC(=O)NC(Cc1c[nH]c2ccccc12)C(=O)[O-].[K+].[K+] (racemic) [N-succinyl-D,L-tryptophane dipotassium salt, reference compound] | (100%) | (43%) | (43%) | 16 ± 4 min | 14 | 6* | 6* | (100%) | (57%) | (43%) | 16 ± 4 min | 14 | 8 | 6* | 0 | 50% | 3 | 19 ± 3 min | 0 | 17% | animals died after administration of the substance ([2]; per/os, dose of 50 mg/kg, mice): 50%; test animals in which arrhythmia develops ([2]; per/os, interval of doses 0.05-5 mg/kg, mice): 71-100%; effect on experimental lethality [3]: prevented experimental lethality; Number of animals with ventricular arrhythmia ([3]; dose 0.5 mg/kg, intravenously): 1; Time of occurrence of arrhythmia ([3]; dose 0.5 mg/kg, intravenously): 21 min; anti-arrhythmic effect [3]: did not demonstrate a reliable anti-arrhythmic effect
O=C(O)CCCC(=O)NCCc1ccccn1 [Compound X] | (70%) | (70%) | (60%) | 13 ± 4 min | 7* | 7 | 6* | (70%) | (60%) | (30%) | 27 ± 6 min | 7* | 6 | 3* | – | – | – | – | – | – | –
CCCCc1oc2ccccc2c1C(=O)c1cc(I)c(OCCN(CC)CC)c(I)c1 [Cordaron, amiodaron, reference compound] | – | – | – | – | – | – | – | – | – | – | – | – | – | – | – | – | – | – | – | – | Animals died in group ([3]; dose 1.0 mg/kg, intravenously): 0; Animals with ventricular arrhythmia (%) ([3]; dose 1.0 mg/kg, intravenously): 40%; Number of animals with ventricular arrhythmia ([3]; dose 1.0 mg/kg, intravenously): 4; Time of occurrence of arrhythmia ([3]; dose 1.0 mg/kg, intravenously): 21 ± 6 min
O=C(O)CCCC(=O)N[C@@H](Cc1c[nH]cn1)C(=O)O [Compound III, N^α-glutaryl-L-histidine] | (86%) | (29%) | (43%) | 32 ± 7 min | 12 | 4* | 6* | (79%) | (21%) | (29%) | 33 ± 5 min | 11 | 3* | 4* | 0 | 25% | 2 | 18 ± 2 min | 0 | 17% | effect on life span of the test animals [1, 7]: effectively increased the life span; ED50 ([2]; Mus musculus, iv): 0.185 ± 0.083 mg/kg; prevention of atrioventricular heart arrhythmia caused by aconitine nitrate ([2]; mice, administration internally): effectively prevents atrioventricular heart arrhythmia; LD50 [4]: 4500 mg/kg; effect on experimental lethality [3]: prevented experimental lethality; Number of animals with ventricular arrhythmia ([3]; dose 0.5 mg/kg, intravenously): 1; Time of occurrence of arrhythmia ([3]; dose 0.5 mg/kg, intravenously): 18 min; anti-arrhythmic effect [3]: had reliable activity
O=C(O)CCCC(=O)NCCc1ccncc1 [Compound IX] | (80%) | (100%) | (70%) | 21 ± 6 min | 8 | 10 | 7 | (60%) | (50%) | (20%) | 32 ± 4 min | 6* | 5 | 2* | – | – | – | – | – | – | –
O=C(O)CCCC(=O)N[C@@H](Cc1c[nH]c2ccccc12)C(=O)O [Compound II, N^α-glutaryl-L-tryptophane] | (50%) | (0%) | (0%) | 22 ± 3.4 min | 7* | 0* | 0* | (50%) | (29%) | (0%) | 19 ± 2.8 min | 7* | 4* | 0* | 1 | 86% | 6 | 17 ± 2 min | 0 | 29% | Animals died in group (%) ([3]; dose 0.05 mg/kg, intravenously): 14%; Number of animals with ventricular arrhythmia ([3]; dose 0.5 mg/kg, intravenously): 2; Time of occurrence of arrhythmia ([3]; dose 0.5 mg/kg, intravenously): 17 to 20 min
O=C(O)CCCC(=O)NCCc1c[nH]cn1 [Compound IV, glutaryl histamine] | (79%) | (21%) | (29%) | 24 ± 3 min | 11 | 3* | 4* | (100%) | (29%) | (14%) | 18 ± 0.8 min | 14 | 4* | 2* | – | – | – | – | – | – | effect on life span of the test animals ([1]; mouse, in vivo, 0.05 mg/kg): effectively increased the life span
CC(C)NCC(O)COc1cccc2ccccc12 (stereo not drawn) [Propranolol, propranolol, reference compound] | – | – | – | – | – | – | – | – | – | – | – | – | – | – | – | – | – | – | – | – | Animals with AV blockage (%) ([1]; mouse, in vivo, 0.1 mg/kg): (36%); Animals with ventricular arrhythmia (%) ([1]; mouse, in vivo, 0.1 mg/kg): (29%); Lifetime ([1]; mouse, in vivo, 0.1 mg/kg): 20 ± 4 min; Number of animals in groups with AV blockage ([1]; mouse, in vivo, 0.1 mg/kg): 5*; Number of animals in groups with ventricular arrhythmia ([1]; mouse, in vivo, 0.1 mg/kg): 4*; Animals with AV blockage (%) ([1]; mouse, in vivo, 0.5 mg/kg): (29%); Animals with ventricular arrhythmia (%) ([1]; mouse, in vivo, 0.5 mg/kg): (50%); Lifetime ([1]; mouse, in vivo, 0.5 mg/kg): 23 ± 4 min; Number of animals in groups with AV blockage ([1]; mouse, in vivo, 0.5 mg/kg): 4*; Number of animals in groups with ventricular arrhythmia ([1]; mouse, in vivo, 0.5 mg/kg): 7*; Animals died in group ([3]; dose 1.0 mg/kg, intravenously): 0; Animals with ventricular arrhythmia (%) ([3]; dose 1.0 mg/kg, intravenously): 28%; Number of animals with ventricular arrhythmia ([3]; dose 1.0 mg/kg, intravenously): 2; Time of occurrence of arrhythmia ([3]; dose 1.0 mg/kg, intravenously): 24 ± 1 min
O=C(O)CCCC(=O)N[C@@H](Cc1c[nH]c2ccccc12)C(=O)O [Compound II mono-sodium salt, mono-sodium salt N^α-glutaryl-L-tryptophane] | (50%) | (0%) | (0%) | 22 ± 3.4 min | 7* | 0* | 0* | (50%) | (36%) | (0%) | 19 ± 2.8 min | 7* | 5* | 0* | – | – | – | – | – | – | effect on lethality of the test animals [1, 7]: statistically reliably reduced the lethality; effect on ventricular ectopic complexes ([1]; mice, introduced internally): elimination of the ventricular ectopic complexes in all of the test animals
O=C(O)CCCC(=O)NCCc1c[nH]c2ccccc12 [Compound XIII mono-sodium salt] | (43%) | (43%) | (36%) | 17 ± 4 min | 6* | 6* | 5* | (36%) | (29%) | (21%) | 28 ± 9 min | 5* | 4* | 3* | – | – | – | – | – | – | –
